Changes are numbered by the printed parent chain. “Also recorded” adds a separate entry of the source. Like-named read-outs stand apart in the source and are kept apart here. Peptide text beside a SMILES is read from it. * marks the point of attachment. Cbz = O=C(OCc1ccccc1)*
Columns and labels:
HMGB1 [1] = molecular target: T1, HMGB1 (Homo sapiens, UniProt P09429); assay: HMGB1 cytosol/nuclear distribution in fractionated PASMC; assay type: cell-based; settings: for cytosol and nuclear levels of HMGB1: PASMC cytosolic and nuclear fraction; for exit of nuclear HMGB1 to the cytosol: especially evident in male cells
T1 construct: endogenous in cells; host or cells: pulmonary artery smooth muscle cells (PASMC), male and female
T1 sequence (P09429 1-215): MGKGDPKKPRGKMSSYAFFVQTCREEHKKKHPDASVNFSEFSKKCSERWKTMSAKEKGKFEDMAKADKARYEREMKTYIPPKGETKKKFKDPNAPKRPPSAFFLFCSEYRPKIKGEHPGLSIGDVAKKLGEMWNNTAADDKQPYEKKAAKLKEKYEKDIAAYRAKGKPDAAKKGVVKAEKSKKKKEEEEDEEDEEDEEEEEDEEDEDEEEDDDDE
Text: FIGS. 1A, 1B, 1C, and 1D show only intracellular Cysteine^106 lowers HMGB1 levels in both fractions. FIGS. 1A and 1B show peptides that bind to HMGB1^Cys106 but not HMGB1^Cys23/45 reduce HMGB1 levels in PASMC cytosolic and nuclear fraction.
FIGS. 2A and 2B show […] increases HMGB1 expulsion from the nucleus to cytosol. A proteasome inhibitor (e.g., MG 132) restores cytosolic (FIG. 2A) and nuclear (FIG. 2B) HMGB1 levels reduced by αHMGB1^Cys106 peptide.
(§1) To study the activities of HMGB1 cysteines, peptides were designed that bind to the specific regions of HMGB1 and, by shielding either Cys106 or Cys23/45, prevent their interaction with the downstream targets. The peptides with cell-penetrating TAT sequences were used to study the intracellular role of HMGB1 cysteines, while peptides without TAT served as extracellular controls. Fractionating pulmonary artery smooth muscle cells (PASMC) allowed the evaluation of HMGB1 cytosol/nuclear distribution. […] The protective role of peptide in vivo was estimated using the rat Sugen/Hypoxia PH model. Given the discovered sex difference in the HMGB1-mediated signaling, the in vitro and in vivo studies were replicated in male and female animals and cells.
(§2) To study the activities of HMGB1 cysteines, peptides were designed with cell-penetrating TAT sequences that bind to either Cys106 or Cys23/45 and prevent the interaction of these cysteines with the downstream targets. The intracellular activities of peptides were evaluated by measuring HMGB1 cytosol/nuclear distribution and the ability to regulate the recombinant HMGB1 binding to double-stranded DNA. The protective role of the Cys106-shielding peptide (αHMGB1^Cys106; SEQ ID NO: 4) was estimated using the rat Sugen/Hypoxia (Su/Hx) PAH model and human endothelial pulmonary artery cells (hPAEC).

[2] = molecular target: T2, recombinant fully reduced HMGB1 (Homo sapiens, UniProt P09429); assay: HMGB1 binding to calf thymus double-stranded DNA cellulose with or without shielding peptide; assay type: biochemical
T2 sequence (P09429 1-215): T1 sequence (P09429 1-215)
Protocol: The left two gel blots show HMGB1 elution after incubation with DNA cellulose.
as §1
To study the activities of HMGB1 cysteines, peptides were designed with cell-penetrating TAT sequences that bind to either Cys106 or Cys23/45 and prevent the interaction of these cysteines with the downstream targets. The intracellular activities of peptides were evaluated by measuring HMGB1 cytosol/nuclear distribution and the ability to regulate the recombinant HMGB1 binding to double-stranded DNA. […]

p53 [3] = assay: p53 levels in nuclei of PASMC; assay type: cell-based
Text: as §1

TLR4 = assay: cytosolic and nuclear TLR4 protein levels; assay type: cell-based
Text: as §1

apoptosis = assay: cell apoptosis induced by the p53 activator; assay type: cell-based
[4] = system: human pulmonary artery endothelial cells (HPAEC); assay: apoptosis in HPAEC stimulated by RITA; assay type: cell-based
Protocol: as §2

[5] = system: human pulmonary artery endothelial cells (HPAEC); assay: genotoxic stress induced in HPAEC by Doxorubicin; assay type: cell-based; settings: Doxorubicin 1 μg/ml for 24 h
Protocol: as §2

[6] = system: rat Sugen/Hypoxia (Su/Hx) PAH model; assay: rat Sugen/Hypoxia (Su/Hx) PAH model, hemodynamics and right ventricle; assay type: in vivo; settings: for right ventricle (RV) systolic pressure / protection of the RV: females, 2.5 mg/kg/day i.p.; for right ventricle (RV) systolic pressure: early stage of PH; for protection of the RV: later stage of PH; for hemodynamic parameters / protection in males: male PH rats
Text: as §1, with “cells. […]” for “cells.”
as §2, with “(hPAEC). […]” for “(hPAEC).”

HMGB1 [7] = molecular target: T3, HMGB1 (Rattus norvegicus, UniProt P63159); assay: plasma HMGB1 levels in Su/Hx rats; assay type: in vivo
T3 construct: from tissue; host or cells: plasma of Su/Hx rats
T3 sequence (P63159 1-215): T1 sequence (P09429 1-215) with E189D, D202E
Text: FIGS. 11A and 11B show the sex differences in plasma HMGB1 levels in response to αHMGB1^Cys106 peptides (e.g., SEQ. ID NO: 4) in early PH stages. Note: SU2 is related to the 2 weeks after exposure to SU5416 (PAH inducer), and is indicative of a relatively early disease stage; SU5 means 5 weeks after exposure to SU5416, and is indicative of an advanced stage of the disease.
The cytosol and nuclear levels of HMGB1 were affected by a cell-penetrating peptide designed to shield Cys106 (TAT-α-HMGB1^Cys106, or α-Cys106) and not any other peptide.

[8] = system: lungs and heart of Su/Hx rats; assay: lung and heart cell damage readouts in Su/Hx rats (apoptosis, senescence, necroptosis, genotoxic stress, fibrosis, hypertrophy); assay type: in vivo, rat; settings: for genotoxic stress in vivo: Su/Hx rats, in b88 males; for senescence: female and early-stage male PAH
p53 [9] = assay: p53 expression in vivo in Su/Hx rats; set-up: species or system rat; settings: either sex
[10] = listed as α-Cys106, 2.5 mg/kg/day

With `CC(C)C[C@@H](C=O)NC(=O)[C@H](CC(C)C)NC(=O)[C@H](CC(C)C)NC(=O)OCc1ccccc1` [MG 132, reference compound] (Cbz-Leu-Leu-Leu-aldehyde) as the compound, how does the “cytosolic and nuclear HMGB1 levels reduced by αHMGB1^Cys106 peptide, effect of proteasome inhibitor” value (HMGB1 [1]; FIGS. 2A, 2B) read?
The value was “restores”.

With “FFLFCSEYRPKIKGRKKRRQRRRPQ [αHMGB1^Cys106 peptide, cell-penetrating TAT peptide designed to shield HMGB1 Cys106]” as the compound, how does the “HMGB1 binding to DNA (HMGB1 elution after incubation with DNA cellulose)” value ([2]; FIG. 3) read?
The value was “prevents HMGB1 binding to DNA”.

What about the “decrease in HMGB1 binding to DNA” value ([2]; recombinant HMGB1, double-stranded DNA cellulose) of the same compound?
Its value is ~5.9 fold.

And the “degradation of HMGB1” value (HMGB1 [1])?
Its value is “lysosomal degradation”.

And the “cytosol and nuclear levels of HMGB1” value (HMGB1 [1])?
The value was “reduced; also recorded: affected”.

What about the “cytosol and nuclear levels of HMGB1” value (HMGB1 [1]; listed as HMGB1^Cys106 peptide) of the same compound?
Its value is “reduces HMGB1 levels”.

What about the “cytosol and nuclear levels of HMGB1” value (HMGB1 [1]; listed as TAT-α-HMGB1^Cys106) of the same compound?
Its value is “affected”.

What about the “exit of nuclear HMGB1 to the cytosol” value (HMGB1 [1]) of the same compound?
Its value is “enhancing the nuclear HMGB1 exit to the cytosol”.

What about the “exit of nuclear HMGB1 to the cytosol” value (HMGB1 [1]; listed as α-Cys106) of the same compound?
The value was “enhanced the exit of nuclear HMGB1 to the cytosol”.

What about the “degradation of HMGB1” value (HMGB1 [1]; listed as α-Cys106) of the same compound?
Its value is “induced its proteasomal degradation”.

And the “HMGB1 level in PASMC” value (HMGB1 [1]; relative to untreated 1±0.097, N=6)?
The value was 0.428±0.045.

And the “HMGB1 level in PASMC with proteasome inhibitor” value (HMGB1 [1]; α-Cys106 plus proteasome inhibitor MG132, 10 μM, 1 hr, untreated 1±0.097, N=6)?
The value was 0.885±0.049.

And the “p53 levels / expression” value (p53 [3])?
The value was “reduces p53 levels”.

And the “p53 levels / expression” value (p53 [3]; listed as α-Cys106)?
Its value is “negatively affected”.

And the “TLR4 protein levels / expression” value (TLR4)?
Its value is “reduces cytosolic and nuclear TLR4 protein levels”.

What about the “TLR4 protein levels / expression” value (TLR4; listed as α-Cys106) of the same compound?
The value was “negatively affected”.

What about the cell apoptosis (apoptosis) of the same compound?
Its cell apoptosis is “attenuates apoptosis”.

And the cell apoptosis (apoptosis; listed as α-Cys106)?
The cell apoptosis was “reduced cell apoptosis”.

And the “apoptosis in HPAEC” value [4]?
Its value is “anti-apoptotic effect”.

And the “genotoxic stress in HPAEC” value [5]?
The value was “protective effect”.

What about the “right ventricle systolic pressure” value ([6]; female Su/Hx rats, preventive study, 2.5 mg/kg/day i.p. for 2 wks, Su/Hx alone 73.2±3.4, p=0.0002) of the same compound?
The value was 50.4±3.0 mmHg.

And the “right ventricle systolic pressure” value ([6]; female Su/Hx rats, treatment study, 2.5 mg/kg/day i.p. for 2 wks, Su/Hx alone 110.5±6.3, p=0.0005)?
Its value is 70.0±2.8 mmHg.

And the “right ventricle (RV) systolic pressure” value ([6]; 2.5 mg/kg/day)?
Its value is “decreases right ventricle (RV) systolic pressure”.

What about the “right ventricle (RV) systolic pressure” value [6, 10] of the same compound?
The value was “decreased right ventricle (RV) systolic pressure”.

And the “protection of the RV” value ([6]; 2.5 mg/kg/day)?
Its value is “protects the RV”.

And the “protection of the RV” value [6, 10]?
Its value is “protected the RV”.

What about the “hemodynamic parameters / protection in males” value [6] of the same compound?
The value was “protected only by treatment protocol”.

And the “hemodynamic parameters / protection in males” value ([6]; listed as α-Cys106)?
Its value is “no changes”.

What about the “right ventricle systolic pressure” value ([6]; male Su/Hx rats, treatment protocol, 2.5 mg/kg/day i.p. for 2 wks, Su/Hx alone 101.7±2.7, p=0.0007, N=5-8) of the same compound?
Its value is 73.4±6.4 mmHg.

What about the “PAH severity in Su/Hx model” value ([6]; rat Su/Hx, 2.5 mg/kg/day i.p. for 2 wks, 2.5 mg/kg/day) of the same compound?
The value was “protective and treatment effects; also recorded: significantly attenuated PAH”.

And the “plasma HMGB1 levels” value (HMGB1 [7]; females, 2.5 mg/kg/day i.p.)?
Its value is “reduced plasma HMGB1 levels”.

What about the “plasma HMGB1” value (HMGB1 [7]; male PH rats) of the same compound?
Its value is “no changes”.

What about the “genotoxic stress in vivo” value [8] of the same compound?
The value was “protects against genotoxic stress”.

What about the “genotoxic stress in vivo” value ([8]; listed as αHMGB1^Cys106) of the same compound?
Its value is “inhibited genotoxic stress”.

What about the “apoptosis in the lungs” value ([8]; female Su/Hx rats) of the same compound?
Its value is “decreases apoptosis; also recorded: mediates protection against apoptosis”.

What about the “apoptosis in the lungs” value ([8]; female Su/Hx rats, listed as α-Cys106) of the same compound?
The value was “anti-apoptotic effect”.

And the “apoptosis in the lungs” value ([8]; female Su/Hx rats, listed as αHMGB1^Cys106)?
The value was “reduced pulmonary apoptosis and senescence”.

And the senescence [8]?
Its senescence is “protects against senescence”.

And the senescence ([8]; listed as αHMGB1^Cys106)?
The senescence was “reduced pulmonary apoptosis and senescence”.

What about the cardiac fibrosis ([8]; heart of male Su/Hx rats) of the same compound?
Its cardiac fibrosis is “anti-fibrotic activity”.

And the “apoptosis in the lungs” value ([8]; male Su/Hx rats)?
The value was “does not manifest”.

And the necroptosis ([8]; males at early PAH)?
The necroptosis was “protects against necroptosis”.

What about the cardiomyocyte hypertrophy ([8]; rat, in vivo) of the same compound?
Its cardiomyocyte hypertrophy is “protective effect”.

And the “expression of p53 in vivo” value (p53 [9])?
Its value is “reduces expression of p53”.

What about the “expression of p53 in vivo” value (p53 [9]; listed as αHMGB1^Cys106) of the same compound?
Its value is “negative regulation of p53 expression”.

Which “cytosol and nuclear levels of HMGB1” value (HMGB1 [1]) does the source give for “SIGDVAKKLGEMWNNGRKKRRQRRRPQ [HMGB1^Cys23/45]” here?
Its value is “not”.

Source: patent publication US20250101204A1, “COMPOSITIONS AND METHODS FOR PROTECTING AGAINST CELL DAMAGE AND INFLAMMATION” (priority 2022, published 2025)
